Laboratory results taken from patent US9708295B2, “Substituted 2-aminopyridine protein kinase inhibitor” (CHIA TAI TIANQING PHARMACEUTICAL GROUP CO., LTD, priority 2013, dated 2017).

Experiments:
[1] = molecular target: L1196M mutated ALK kinase (Homo sapiens (Human), UniProt Q9UM73, L1196M); assay: biochemical
[2] = molecular target: G1269S mutated ALK kinase (Homo sapiens (Human), UniProt Q9UM73, G1269S); assay: biochemical
ALK kinase = ALK kinase (Homo sapiens (Human), UniProt Q9UM73); conditions: read-out: IC50 (nM), ALK inhibition activity; HTRF, ATP at Km
CYP-3A4 = CYP-3A4 (Homo sapiens (Human), UniProt P08684); assay: Inhibition of CYP-3A4 (midazolam substrate); format: in vitro ADME; conditions: for IC50: substrate midazolam, read-out: Inhibition to CYP-3A4, 3A4_Midazolam
[3] = In vivo pharmacokinetics in SD rats; conditions: Sprague-Dawley, rat, po, 5 mg/kg
[4] = test system: human non-small cell lung carcinoma NCI-H2228; assay: Therapeutic effect on human non-small cell lung carcinoma NCI-H2228 xenografts in nude mice; format: in vivo; conditions: D0-13 once a day; for Average tumor volume (mm^3) D0: D0 baseline at grouping
in vivo = conditions: Sprague-Dawley, rat, po, 5 mg/kg

CYP-3A4, sequence (P08684 whole entry): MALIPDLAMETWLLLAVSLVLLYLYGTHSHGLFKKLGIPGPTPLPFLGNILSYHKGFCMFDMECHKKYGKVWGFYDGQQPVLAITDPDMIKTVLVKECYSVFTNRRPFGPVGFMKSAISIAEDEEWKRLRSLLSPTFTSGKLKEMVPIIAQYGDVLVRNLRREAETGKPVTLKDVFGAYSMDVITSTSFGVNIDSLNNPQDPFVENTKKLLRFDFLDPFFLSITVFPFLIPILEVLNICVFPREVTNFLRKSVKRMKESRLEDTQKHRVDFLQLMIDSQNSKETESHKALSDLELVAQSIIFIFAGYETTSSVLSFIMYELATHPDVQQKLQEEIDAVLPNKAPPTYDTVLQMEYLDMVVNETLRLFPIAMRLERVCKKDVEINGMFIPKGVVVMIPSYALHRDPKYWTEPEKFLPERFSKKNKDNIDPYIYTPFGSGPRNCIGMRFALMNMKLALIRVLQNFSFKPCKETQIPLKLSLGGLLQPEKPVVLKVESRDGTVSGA
G1269S mutated ALK kinase, sequence (Q9UM73 19-1620 G1269S): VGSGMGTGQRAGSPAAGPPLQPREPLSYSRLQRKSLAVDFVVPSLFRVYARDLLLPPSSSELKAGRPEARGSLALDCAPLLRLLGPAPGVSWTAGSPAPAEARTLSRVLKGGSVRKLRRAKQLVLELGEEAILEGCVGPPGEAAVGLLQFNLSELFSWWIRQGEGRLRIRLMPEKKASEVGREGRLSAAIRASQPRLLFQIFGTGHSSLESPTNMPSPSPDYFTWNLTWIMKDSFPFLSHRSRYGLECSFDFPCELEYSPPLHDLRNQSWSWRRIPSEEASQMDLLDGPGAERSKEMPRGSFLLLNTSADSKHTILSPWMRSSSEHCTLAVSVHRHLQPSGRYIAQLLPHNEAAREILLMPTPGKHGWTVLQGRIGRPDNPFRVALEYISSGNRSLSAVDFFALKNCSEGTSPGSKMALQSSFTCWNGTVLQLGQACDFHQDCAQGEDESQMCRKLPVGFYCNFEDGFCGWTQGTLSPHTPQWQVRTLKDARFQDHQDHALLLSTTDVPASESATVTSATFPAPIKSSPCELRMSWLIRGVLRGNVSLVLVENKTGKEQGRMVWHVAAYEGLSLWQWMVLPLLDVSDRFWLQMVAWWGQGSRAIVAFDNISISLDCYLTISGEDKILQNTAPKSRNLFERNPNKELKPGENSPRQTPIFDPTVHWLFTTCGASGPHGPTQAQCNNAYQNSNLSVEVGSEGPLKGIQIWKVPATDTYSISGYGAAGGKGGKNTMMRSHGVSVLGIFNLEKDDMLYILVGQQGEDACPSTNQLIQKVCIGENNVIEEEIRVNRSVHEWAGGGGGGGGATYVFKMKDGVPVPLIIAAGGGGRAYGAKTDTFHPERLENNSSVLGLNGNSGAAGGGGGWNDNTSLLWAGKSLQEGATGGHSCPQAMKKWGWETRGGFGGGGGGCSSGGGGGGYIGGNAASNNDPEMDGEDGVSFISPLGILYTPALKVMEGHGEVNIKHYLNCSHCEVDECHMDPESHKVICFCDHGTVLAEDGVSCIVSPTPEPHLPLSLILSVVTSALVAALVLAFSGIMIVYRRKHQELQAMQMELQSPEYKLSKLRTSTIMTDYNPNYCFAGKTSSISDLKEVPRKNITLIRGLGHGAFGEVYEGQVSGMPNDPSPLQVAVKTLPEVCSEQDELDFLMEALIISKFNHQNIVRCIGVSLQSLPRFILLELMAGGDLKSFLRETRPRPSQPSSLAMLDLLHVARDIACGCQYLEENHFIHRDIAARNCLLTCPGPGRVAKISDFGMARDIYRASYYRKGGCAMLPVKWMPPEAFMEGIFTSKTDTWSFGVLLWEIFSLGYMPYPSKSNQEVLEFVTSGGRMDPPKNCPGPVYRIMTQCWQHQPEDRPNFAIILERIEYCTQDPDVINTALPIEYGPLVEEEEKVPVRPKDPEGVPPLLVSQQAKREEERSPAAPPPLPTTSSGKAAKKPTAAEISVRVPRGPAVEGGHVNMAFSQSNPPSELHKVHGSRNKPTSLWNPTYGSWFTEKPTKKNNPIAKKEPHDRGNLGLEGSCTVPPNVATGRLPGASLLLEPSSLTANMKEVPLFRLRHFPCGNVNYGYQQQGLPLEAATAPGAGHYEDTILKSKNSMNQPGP
ALK kinase, sequence (Q9UM73 19-1620): as the sequence (Q9UM73 19-1620 G1269S) above, with S1251G counted along it
L1196M mutated ALK kinase, sequence (Q9UM73 19-1620 L1196M): as the sequence (Q9UM73 19-1620 G1269S) above, with L1178M, S1251G counted along it

| SMILES | IC50 [1] | IC50 [2] | IC50 (ALK kinase) | inhibition against CYP-3A4 (in words) (CYP-3A4) | IC50 (CYP-3A4) | AUC(0-inf) [3] | Cmax [3] | Tmax [3] | half-life [3] | Average tumor volume (mm^3) D0 ([4]; 12.5 mg/kg PO) | % Inhibition rate D21 ([4]; 12.5 mg/kg PO, D21) | % T/C D21 ([4]; 12.5 mg/kg PO, D21) | Average tumor volume (mm^3) D21 ([4]; 12.5 mg/kg PO, D21) | Average tumor volume (mm^3) D0 ([4]; 25 mg/kg PO) | Average tumor volume (mm^3) D21 ([4]; 25 mg/kg PO, D21) | % T/C D21 ([4]; 25 mg/kg PO, D21, tumor regression formula) | AUC(0-inf) (in vivo) | Cmax (in vivo) | Tmax (in vivo) | half-life (in vivo) |
| --- | --- | --- | --- | --- | --- | --- | --- | --- | --- | --- | --- | --- | --- | --- | --- | --- | --- | --- | --- | --- |
| COc1cc(N2CCNC[C@@H]2C)ncc1-c1cnc(N)c(O[C@H](C)c2c(Cl)ccc(F)c2Cl)c1 [Example 27, 5-((R)-1-(2,6-dichloro-3-fluorophenyl)ethoxy)-4′-methoxy-6′-((S)-2-methylpiperazin-1-yl)-[3,3′-bipyridin]-6-amine] | 35.1 ± 5.3 nM | 61.3 ± 7.9 nM | 1.96 nM | no significant inhibition | > 10000 nM | 601 ng·h/mL | 69.7 ng/mL | 3.67 h | 5.45 h | 134.3 mm^3 | 78% | 22% | 394.8 mm^3 | 131.0 mm^3 | 21.7 mm^3 | −83% | – | – | – | – |
| CCOc1cc(N2CCNC[C@@H]2C)ncc1-c1cnc(N)c(O[C@H](C)c2c(Cl)ccc(F)c2Cl)c1 [Example 53, 5-((R)-1-(2,6-dichloro-3-fluorophenyl)ethoxy)-4′-ethoxy-6′-((S)-2-methylpiperazin-1-yl)-[3,3′-bipyridin]-6-amine] | – | – | – | – | – | 830 ng·h/mL | 62.6 ng/mL | 3.33 h | 4.75 h | – | – | – | – | – | – | – | – | – | – | – |
| COc1cc(-c2cnc(N)c(O[C@H](C)c3c(Cl)ccc(F)c3Cl)c2)cnc1C1=CCNCC1 [Example 30, (R)-5-(1-(2,6-dichloro-3-fluorophenyl)ethoxy)-5′-methoxy-1″,2″,3″,6″-tetrahydro-[3,3′:6′,4″-terpyridin]-6-amine] | – | – | – | no significant inhibition | > 10000 nM | – | – | – | – | – | – | – | – | – | – | – | 1270 ng·h/mL | 113 ng/mL | 3 h | 4.43 h |
